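Five compound concentrations were applied to cells in 96-well plates for 48 hours; endpoints were derived by simple linear interpolation of the resulting dose-response curve. GI50: concentration for 50% inhibition of growth. TGI denotes the concentration required for complete inhibition of growth.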
Columns and labels:
Experiment in all cases: NCI-60 cell line screen, 48 h
HCT-116 colon = test system: HCT-116 colon
A549 NSCLC = test system: A549 NSCLC
A498 renal = test system: A498 renal
RXF 393 renal = test system: RXF 393 renal
MOLT-4 leukemia = test system: MOLT-4 leukemia
SN12C renal = test system: SN12C renal
MCF7 breast = test system: MCF7 breast
M14 melanoma = test system: M14 melanoma
SK-MEL-28 melanoma = test system: SK-MEL-28 melanoma
EKVX NSCLC = test system: EKVX NSCLC

Row | SMILES | TGI (HCT-116 colon) [µM] | TGI (A549 NSCLC) [µM] | TGI (A498 renal) [µM] | TGI (RXF 393 renal) [µM] | TGI (MOLT-4 leukemia) [µM] | TGI (SN12C renal) [µM] | TGI (MCF7 breast) [µM] | TGI (M14 melanoma) [µM] | TGI (SK-MEL-28 melanoma) [µM] | TGI (EKVX NSCLC) [µM] | GI50 (HCT-116 colon) [µM] | GI50 (A549 NSCLC) [µM] | GI50 (A498 renal) [µM] | GI50 (RXF 393 renal) [µM] | GI50 (MOLT-4 leukemia) [µM] | GI50 (SN12C renal) [µM] | GI50 (MCF7 breast) [µM] | GI50 (M14 melanoma) [µM] | GI50 (SK-MEL-28 melanoma) [µM] | GI50 (EKVX NSCLC) [µM]
1 | CC(C)(C)N/N=C(/Cc1nc2c3c(ccc2[nH]c1=O)C(=O)c1ccccc1C3=O)C(=O)NC1=C(Cl)C(=O)c2ccccc2C1=O | > 100 | > 100 | > 100 | > 100 | > 100 | > 100 | > 100 | > 100 | > 100 | > 100 | – | – | – | – | – | – | – | – | – | –
2 | C=C1C(=O)OC2CC(C)C(/C=C/C(C)=O)=CCC12 (stereo not drawn) | > 100 | > 100 | > 100 | > 100 | > 100 | > 100 | > 100 | > 100 | > 100 | > 100 | – | – | – | – | – | – | – | – | – | –
3 | Cc1cc(NC(=O)NCc2ccc(N3C(N)=NC(N)=NC3(C)C)cc2)ccc1S(=O)(=O)F | > 100 | > 32.1 | > 100 | > 100 | > 100 | > 100 | > 100 | > 100 | > 100 | > 100 | 0.429 | 0.528 | > 46.4 | 51.2 | 2.01 | 0.833 | 1.93 | 1.51 | 17.7 | 13.8
4 | O=c1cc(-c2ccccc2)oc2ccc(Cl)cc12 | > 100 | > 100 | 98 | > 91.2 | 98.7 | > 100 | > 100 | > 100 | > 78.4 | > 97 | – | – | – | – | – | – | – | – | – | –
5 | CC(=O)c1cc2c(N)c(C(=O)Nc3cccc4ccccc34)sc2nc1C | > 50 | > 50 | > 50 | 3.46 | > 50 | > 50 | > 50 | 3.21 | > 50 | > 50 | 2.23 | 0.977 | 0.34 | 0.891 | 2.19 | 3.44 | 1.42 | 0.745 | 4.07 | 2.9
6 | CCCCCCCCCCCC/C=C\CC[C@@H](O)[C@H](O)CC[C@H](O)[C@@H]1CC[C@@H](CCCCCCCC2=C[C@H](C)OC2=O)O1 | 27.1 | 23 | 36.6 | 37.8 | 4.88 | 31 | 34.6 | 46.8 | 56.3 | 28.9 | 0.231 | 3.36 | 16.4 | – | 1.72 | 13 | 4.76 | – | 20.2 | 11.6
7 | CCn1c(-c2nonc2N)nc2ccccc21 | > 25 | > 25 | > 25 | > 25 | > 25 | > 25 | > 25 | > 25 | > 25 | > 25 | > 25 | > 25 | > 25 | 16.7 | > 25 | > 25 | > 25 | > 25 | > 25 | 20.9

— PubChem BioAssay (NCI)
